Where two headings read alike, the source gives them in different places.
System: wild-type HIV-1 strain IIIB
Experiment: microbe, parasite or virus in culture
Format: cell-based

SMILES | EC50 (read-out: EC50) [nM] | EC50 (Human immunodeficiency virus 1, IIIB, MT2) [nM]
CC(C)CN(CC(O)C(Cc1ccc(OCP(=O)(OCc2ccccc2)OCc2ccccc2)cc1)NC(=O)OC1COC2OCCC12)S(=O)(=O)c1ccc(C=O)cc1 (centres unmarked) | < 50 | 
COc1ccc(S(=O)(=O)N(CC(C)C)C[C@@H](O)[C@H](Cc2ccc(OCP(=O)(Oc3ccccc3)O[C@@H](C)C(=O)OCCN3CCCCC3)cc2)NC(=O)O[C@H]2CO[C@H]3OCC[C@H]32)cc1 (stereo partly drawn) [drawing 659 R1=OPh R2=(S)Lac-EtPip] | 50 to 500 | 
COc1ccc(S(=O)(=O)N(CC(C)C)C[C@@H](O)[C@H](Cc2ccc(OCP(=O)(Oc3ccccc3)OC(C)C(=O)OCCCN3CCOCC3)cc2)NC(=O)O[C@H]2CO[C@H]3OCC[C@H]32)cc1 (some centres unmarked) [drawing 658 R1=OPh R2=Lac-PrMor] | > 5000 | 
CCCCOC(=O)C(C)OP(=O)(COc1ccc(C[C@H](NC(=O)O[C@H]2CO[C@H]3OCC[C@H]32)[C@H](O)CN(CC(C)C)S(=O)(=O)c2cccc(N)c2)cc1)Oc1ccccc1 (some centres unmarked) [drawing 764] | 50 to 500 | 
CCOC(=O)COP(=O)(COc1ccc(C[C@H](NC(=O)O[C@H]2CO[C@H]3OCC[C@H]32)[C@H](O)CN(CC(C)C)S(=O)(=O)c2ccc(OC)cc2)cc1)OCC(=O)OCC [drawing 656 R1=Glc-Et R2=Glc-Et] | 500 to 5000 | 
CCOC(=O)C(C)OP(=O)(COc1ccc(C[C@H](NC(=O)O[C@H]2CO[C@H]3OCC[C@H]32)[C@H](O)CN(CC(C)C)S(=O)(=O)c2ccc(OCc3ccccc3)cc2)cc1)Oc1ccccc1 (some centres unmarked) | 50 to 500 | 
CCOC(=O)C(C)OP(=O)(COc1ccc(CC(NC(=O)OC2COC3OCCC23)C(O)CN(CC(C)C)S(=O)(=O)c2ccc(CO)cc2)cc1)Oc1ccccc1 (centres unmarked) | < 50 | 
CCCCc1ccc(OP(=O)(COc2ccc(C[C@H](NC(=O)O[C@H]3CO[C@H]4OCC[C@H]43)[C@H](O)CN(CC(C)C)S(=O)(=O)c3ccc(OC)cc3)cc2)O[C@@H](C)C(=O)OCC)cc1 (stereo partly drawn) [drawing 660 R1=OPh—p-n-But R2=(S)Lac-Et] | < 50 | 
COc1ccc(S(=O)(=O)N(CCN(C)C)CC(O)C(Cc2ccc(O)cc2)NC(=O)OC2COC3OCCC23)cc1 (centres unmarked) | 50 to 500 | 
COc1ccc(S(=O)(=O)N(CC(C)C)C[C@@H](O)[C@H](Cc2ccc(OCP(=O)(Oc3ccccc3)OC(C)C(=O)OCCN3CCOCC3)cc2)NC(=O)O[C@H]2CO[C@H]3OCC[C@H]32)cc1 (some centres unmarked) [drawing 658 R1=OPh R2=Lac-EtMor] | > 5000 | 
COc1ccc(S(=O)(=O)N(CC(C)C)CC(O)C(CC2=CCN(CCP(=O)(O)OC(C)C(=O)O)CC2)NC(=O)OC2COC3OCCC23)cc1 (centres unmarked) | > 5000 | 
CCOC(=O)C(C)OP(=O)(CCNc1ccc(CC(NC(=O)OC2COC3OCCC23)C(O)CN(CC(C)C)S(=O)(=O)c2ccc(OC)cc2)cc1)Oc1ccccc1 (single isomer, unassigned) [drawing 707] | < 50 | 
COc1ccc(S(=O)(=O)N(CC(C)C)C[C@@H](O)[C@H](Cc2ccc(OCP(=O)(Oc3ccccc3)OC(C)C(=O)OC(C)C)cc2)NC(=O)O[C@H]2CO[C@H]3OCC[C@H]32)cc1 (single isomer, unassigned) [drawing 658 R1=OPh R2=Lac-iPr] | < 50 | 
CCOC(=O)C(C)OP(=O)(COc1ccc(CC(NC(=O)OC2COC3OCCC23)C(O)CN(CC(C)C)S(=O)(=O)c2ccc(OC)cc2)cc1)Oc1ccccc1OCC [drawing 660 R1=OPh-o-OEt R2=(S)Lac-Et] | < 50 | 
CCCCCCCCc1ccc(OP(=O)(COc2ccc(C[C@H](NC(=O)O[C@H]3CO[C@H]4OCC[C@H]43)[C@H](O)CN(CC(C)C)S(=O)(=O)c3ccc(OC)cc3)cc2)O[C@@H](C)C(=O)OCC)cc1 (stereo partly drawn) [drawing 660 R1=OPh—p-n-Oct R2=(S)Lac-Et] | 50 to 500 | 
CCOC(=O)[C@H](C)OP(=O)(COc1ccc(C[C@H](NC(=O)O[C@H]2CO[C@H]3OCC[C@H]32)[C@H](O)CN(CC(C)C)S(=O)(=O)c2ccc(OC)cc2)cc1)ON1CCOCC1 (stereo partly drawn) [drawing 660 R1=OMor R2=(S)Lac-Et] | > 5000 | 
CCOC(=O)C(C)OP(=O)(COc1ccc(CC(NC(=O)OC2COC3OCCC23)C(O)CN(CC(C)C)S(=O)(=O)c2ccc(C=O)cc2)cc1)Oc1ccccc1 (centres unmarked) | < 50 | 
CCOP(=O)(CCN1CCN(CC(NC(=O)OC2COC3OCCC23)C(O)CN(CC(C)C)S(=O)(=O)c2ccc(OC)cc2)CC1)OCC (centres unmarked) | 50 to 500 | 
CCOP(=O)(COc1ccc(S(=O)(=O)N(CC(C)C)CC(O)C(Cc2ccc(N)cc2)NC(=O)OC2COC3OCCC23)cc1)OCC (centres unmarked) [NH2, OEt] |  | 50 to 500
CCOC(=O)C(C)NP(=O)(COc1ccc(C[C@H](NC(=O)O[C@H]2CO[C@H]3OCC[C@H]32)[C@H](O)CN(CC(C)C)S(=O)(=O)c2ccc(OC)cc2)cc1)OCc1ccccc1 (some centres unmarked) [drawing 657 R1=OBn R2=Ala-Et] | < 50 | 
CC(C)CN(C[C@@H](O)[C@H](Cc1ccc(OCP(=O)(O)O)cc1)NC(=O)O[C@H]1CO[C@H]2OCC[C@H]21)S(=O)(=O)c1ccc(O)cc1 [drawing 652 R1=OH R2=OH] | 500 to 5000 | 
CCOC(=O)C(C)OP(=O)(Cc1ccc(N(C)CC(NC(=O)OC2COC3OCCC23)C(O)CN(CC(C)C)S(=O)(=O)c2ccc(OC)cc2)cc1)Oc1ccccc1 (centres unmarked) | < 50 | 

SMILES | EC50 (read-out: EC50) [nM] | EC50 (Human immunodeficiency virus 1, IIIB, MT2) [nM]
CCOP(=O)(O)COc1ccc(CC(NC(=O)OC2COC3OCCC23)C(O)CN(CC(C)C)S(=O)(=O)c2ccc(OC)cc2)cc1 (centres unmarked) [drawing 651 R1=OH R2=OEt] | 50 to 500 | 
CCOC(=O)C(C)OP(=O)(COc1ccc(CC(NC(=O)OC2COC3OCCC23)C(O)CN(CC(C)C)S(=O)(=O)c2ccc(OC)cc2)cc1)Oc1cccc(C(=O)O)c1 [drawing 660 R1=OPh-m-COOH R2=(S)Lac-Et] | 50 to 500 | 
CCOC(=O)C(C)OP(=O)(COc1ccc(CC(NC(=O)OC2COC3OCCC23)C(O)CN(CC(C)C)S(=O)(=O)c2ccc(OC)cc2)cc1)Oc1ccccc1CC(C)C [drawing 660 R1=OPh—o-i-But R2=(S)Lac-Et] | < 50 | 
CCOC(=O)[C@H](C)OP(=O)(COc1ccc(C[C@H](NC(=O)O[C@H]2CO[C@H]3OCC[C@H]32)[C@H](O)CN(CC(C)C)S(=O)(=O)c2ccc(OC)cc2)cc1)ON1CCCCC1 (stereo partly drawn) [drawing 660 R1=OPip R2=(S)Lac-Et] | 500 to 5000 | 
COc1ccc(S(=O)(=O)N(CC(C)C)CC(O)C(Cc2ccc(OCP(=O)(O)OCc3ccccc3)cc2)NC(=O)OC2COC3OCCC23)cc1 (centres unmarked) [drawing 651 R1=OH R2=OBn] | 500 to 5000 | 
CCOP(=O)(COc1ccc(C[C@H](NC(=O)O[C@H]2CO[C@H]3OCC[C@H]32)[C@H](O)CN(CC(C)C)S(=O)(=O)c2ccc([N+](=O)[O-])cc2)cc1)OCC | < 50 | 
CC(C)CN(CC(O)C(Cc1ccc(OCP(=O)(OCc2ccccc2)OC(C)C(=O)OCc2ccccc2)cc1)NC(=O)OC1COC2OCCC12)S(=O)(=O)c1ccc[n+]([O-])c1 (centres unmarked) | > 5000 | 
CCOC(=O)C(C)OP(=O)(COc1ccc(CC(NC(=O)OC2COC3OCCC23)C(O)CN(CC(C)C)S(=O)(=O)c2ccc(OC)cc2)cc1)Oc1ccccc1 (centres unmarked) [drawing 661 R1=OPh R2=Lac-Et] | 50 to 500 | 
CCOC(=O)[C@H](C)OP(=O)(COc1ccc(C[C@H](NC(=O)O[C@H]2CO[C@H]3OCC[C@H]32)[C@H](O)CN(CC(C)C)S(=O)(=O)c2ccc(OC)cc2)cc1)Oc1cccc(CN2CCCCC2)c1 (stereo partly drawn) [drawing 660 R1=OPh-m-CH2Pip R2=(S)Lac-Et] | 50 to 500 | 
CCOC(=O)[C@H](C)OP(=O)(COc1ccc(C[C@H](NC(=O)O[C@H]2CO[C@H]3OCC[C@H]32)[C@H](O)CN(CC(C)C)S(=O)(=O)c2ccc(OC)cc2)cc1)Oc1cccc(CN2CCOCC2)c1 (stereo partly drawn) [drawing 660 R1=OPh-m-CH2Mor R2=(S)Lac-Et] | 50 to 500 | 
CCOC(=O)C(CC)NP(=O)(COc1ccc(C[C@H](NC(=O)O[C@H]2CO[C@H]3OCC[C@H]32)[C@H](O)CN(CC(C)C)S(=O)(=O)c2ccc(OC)cc2)cc1)NC(CC)C(=O)OCC (some centres unmarked) [drawing 655 R1=Aba-Et R2=Aba-Et] | < 50 | 
CC(C)CN(C[C@@H](O)[C@H](Cc1ccc(OCP(=O)(OCc2ccccc2)OCc2ccccc2)cc1)NC(=O)O[C@H]1CO[C@H]2OCC[C@H]21)S(=O)(=O)c1ccc(C(F)(F)F)cc1 | < 50 | 
COc1ccc(S(=O)(=O)N(CC(C)C)C[C@@H](O)[C@H](Cc2ccc(OCP(=O)(OCOC(=O)OC(C)C)OCOC(=O)OC(C)C)cc2)NC(=O)O[C@H]2CO[C@H]3OCC[C@H]32)cc1 [drawing 651 R1=OPoc R2=OPoc] | 500 to 5000 | 
CCOP(=O)(OCC)c1ccc(CNCC(NC(=O)OC2COC3OCCC23)C(O)CN(CC(C)C)S(=O)(=O)c2ccc(OC)cc2)cc1 (centres unmarked) | < 50 | 
COc1ccc(S(=O)(=O)N(CC(C)C)C[C@@H](O)[C@H](Cc2ccc(OCP(=O)(Oc3ccccc3)O[C@@H](C)C(=O)OCCCN3CCOCC3)cc2)NC(=O)O[C@H]2CO[C@H]3OCC[C@H]32)cc1 (stereo partly drawn) [drawing 659 R1=OPh R2=(S)Lac-PrMor] | > 5000 | 
COc1ccc(S(=O)(=O)N(CC(C)C)C[C@@H](OP(=O)(O)O)[C@H](Cc2ccc(OCP(=O)(Oc3ccccc3)O[C@@H](C)C(=O)OC(C)C)cc2)NC(=O)O[C@H]2CO[C@H]3OCC[C@H]32)cc1 (some centres unmarked) | < 50 | 
CCOC(=O)C(C)OP(=O)(CCN1CC=C(CC(NC(=O)OC2COC3OCCC23)C(O)CN(CC(C)C)S(=O)(=O)c2ccc(OC)cc2)CC1)Oc1ccccc1 (centres unmarked) | > 5000 | 
COc1ccc(S(=O)(=O)N(CC(C)C)C[C@@H](O)[C@H](Cc2ccc(OCP(=O)(Oc3ccccc3)Oc3ccccc3)cc2)NC(=O)O[C@H]2CO[C@H]3OCC[C@H]32)cc1 [drawing 651 R1=OPh R2=OPh] | < 50 | 
CCOC(=O)C(C)OP(=O)(Cc1ccc(NCC(NC(=O)OC2COC3OCCC23)C(O)CN(CC(C)C)S(=O)(=O)c2ccc(OC)cc2)cc1)Oc1ccccc1 (centres unmarked) | < 50 | 
CCOC(=O)C(CC)NP(=O)(CCNCc1ccc(C[C@H](NC(=O)O[C@H]2CO[C@H]3OCC[C@H]32)[C@H](O)CN(CC(C)C)S(=O)(=O)c2ccc(OC)cc2)cc1)Oc1ccccc1 (some centres unmarked) [drawing 662 R1=Ph R2=Aba-Et] | 500 to 5000 | 
CCOC(=O)[C@H](C)OP(=O)(COc1ccc(C[C@H](NC(=O)O[C@H]2CO[C@H]3OCC[C@H]32)[C@H](O)CN(CC(C)C)S(=O)(=O)c2ccc(OC)cc2)cc1)Oc1cccc(CN(C)C)c1 (stereo partly drawn) [drawing 660 R1=OPh-m-CH2NMe2 R2=(S)Lac-Et] | 500 to 5000 | 
CCOC(=O)C(CC)OP(=O)(COc1ccc(CC(NC(=O)OC2COC3OCCC23)C(O)CN(CC(C)C)S(=O)(=O)c2ccc(OC)cc2)cc1)Oc1ccccc1 (mixture of isomers) [drawing 659 R1=OPh R2=mix-Hba-Et] | < 50 | 
